Source: US20080026049A1, “LIPOSOMAL COMPOSITIONS FOR PARENTERAL DELIVERY OF AGENTS” (priority 2005, published 2008)

Experiment: physchem
Conditions: HBS, aqueous buffer

solubility: < 100 µg/mL
SMILES: Clc1ccc(COC(Cn2ccnc2)c2ccc(Cl)cc2Cl)cc1 (stereo not shown) [econazole, [(dichloro-2,4 phenyl)-2(chloro-4 benzoyloxy)-2 ethyl]-1 imidazole nitrate]
